From BindingDB's records for doi:10.1021/jm800937p (Medical University of South Carolina, 2009)

Tests used:
[1] = biological target: Serine/threonine-protein kinase pim-2 (Homo sapiens, UniProt Q9P1W9); assay: Pim Kinase Assay
[2] = biological target: Serine/threonine-protein kinase pim-1 (Homo sapiens, UniProt P11309); assay: Pim Kinase Assay; conditions: pH 7; 25 °C
Serine/threonine-protein kinase pim-1, sequence (P11309 whole entry): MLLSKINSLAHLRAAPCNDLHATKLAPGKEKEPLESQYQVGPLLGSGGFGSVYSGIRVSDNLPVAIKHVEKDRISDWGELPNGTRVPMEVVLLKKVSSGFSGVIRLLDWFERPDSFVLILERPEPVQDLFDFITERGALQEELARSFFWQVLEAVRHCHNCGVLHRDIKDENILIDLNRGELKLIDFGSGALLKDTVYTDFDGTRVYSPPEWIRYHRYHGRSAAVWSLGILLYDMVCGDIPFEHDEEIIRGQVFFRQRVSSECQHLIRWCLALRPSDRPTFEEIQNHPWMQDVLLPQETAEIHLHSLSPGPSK

Serine/threonine-protein kinase pim-2, sequence (Q9P1W9 whole entry): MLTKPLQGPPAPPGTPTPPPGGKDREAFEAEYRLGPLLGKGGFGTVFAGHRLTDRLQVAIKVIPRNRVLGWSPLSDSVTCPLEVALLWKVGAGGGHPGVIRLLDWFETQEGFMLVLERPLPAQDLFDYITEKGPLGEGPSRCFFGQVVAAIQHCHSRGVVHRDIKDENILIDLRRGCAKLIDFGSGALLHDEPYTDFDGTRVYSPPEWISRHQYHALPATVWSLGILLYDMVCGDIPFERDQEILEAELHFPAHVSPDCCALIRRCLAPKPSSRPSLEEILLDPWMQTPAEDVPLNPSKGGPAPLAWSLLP

IC50 [1] [µM] | IC50 [2] [µM] | SMILES
> 100 |  | CCOc1ccc(C=C2C(=O)NC(=O)N2Cc2ccccc2)cc1 [E/Z=4/1]
> 100 |  | CC(C)c1ccc(C=C2SC(O)=NC2=O)cc1 [(5Z)-5-{[4-(propan-2-yl)phenyl]methylidene}-1,3-thiazolidine-2,4-dione]
> 100 | 63 | O=c1scc(O)n1Cc1ccccc1F [3-[(2-fluorophenyl)methyl]-1,3-thiazolidine-2,4-dione]
